These results are taken from patent US20060211705A1, “'N-(2-chloro-6-methylphenyl)-2-[[6-[4-(2-hydroxyethyl)-1-piperazinyl]-2-methyl-4-pyrimidinyl]amino]-5-thiazolecarboxamides metabolites” (priority 2005, published 2006).

Each structure is given as a SMILES string.

Series [1] is described as follows: Radioactive metabolites in plasma, urine and feces after single oral dose of [14C] compound (I) to monkeys. Format: in vivo, cynomolgus monkey. As to conditions: for % Distribution of radioactive metabolites in pooled plasma, Monkey (4 h): oral 10 mg/kg [14C] compound (I), plasma 4 h; for Metabolites in Urine (0-168 hr), Monkey, % Dose / Metabolites in Urine (0-168 hr), Monkey, % Rad / Metabolites in Feces (0-168 hr), Monkey, % Dose / Metabolites in Feces (0-168 hr), Monkey, % Rad: oral 10 mg/kg; for Metabolites in Urine (0-168 hr), Monkey, % Dose / Metabolites in Urine (0-168 hr), Monkey, % Rad: pooled urine 0-168 hr; for Metabolites in Feces (0-168 hr), Monkey, % Dose / Metabolites in Feces (0-168 hr), Monkey, % Rad: pooled fecal extracts 0-168 hr. As to the method: A separate bile-duct cannulated (BDC) monkey study was also conducted.
(§1) Plasma samples were segregated by collection time and equal volumes of individual plasma samples at a given time point were combined for biotransformation profiling.
(§2) The C-14 label was on the carbon-2 of the thiazole ring.
(§3) HPLC was performed on an Agilent 1100™ system equipped with binary pumps, autoinjector, and a column heater. A Phenomenex Synergy Polar-RP® column (4.6×250 mm, 5 micron) was used for metabolite separation. All HPLC analyses were performed at 1 mL/min flow rate at 35° C. The HPLC mobile phase consisted of (A) water with 0.1% formic acid and (B) acetonitrile with 0.1% formic acid.
(§4) Each fraction of column eluent was evaporated to dryness on a Savant Speed-Vac (Savant Instruments Inc., Holbrook, N.Y.) and counted for radioactivity with a Packard Top Count® microplate scintillation analyzer (Packard Biosciences, Downers Grove, Ill.).
(§5) The volumes of pooled plasma processed for HPLC analysis for rat, monkey and human ranged between 1.5 and 8.0 mL. Pooled plasma samples were extracted with methanol/acetonitrile (1:1) at a ratio of 2 volumes solvent to 1 volume of plasma. The mixtures were vortex mixed, sonicated for 5 min, and centrifuged at 3500 rpm for 10 min. The supernatants were transferred into new tubes. The remaining pellets were extracted two more times with 3 mL of methanol/acetonitrile (1:1). The supernatants were combined and evaporated to dryness in a Savant Speed-Vac (Savant Instruments, Inc., Holbrook, N.Y.). The residue was reconstituted into 0.35 to 0.45 mL of 30% acetonitrile in water, vortex mixed and centrifuged at 13000 rpm for 5 min (American Scientific Products Biofuge A centrifuge, Heraeus Sepatech GmbH, Germany). The supernatant was injected onto the HPLC for profiling. Aliquots of the reconstituted samples (30 μl) were also counted on the liquid scintillation counter (LSC) to determine the recovery of radioactivity.
(§6) The pooled monkey and human urine samples (3-5 mL) were extracted with 2 volumes of acetonitrile/acetone (1:1). The mixtures were vortex mixed, sonicated and centrifuged at 3500 rpm for 10 min. The supernatants were evaporated to dryness. The residue was suspended in 0.3-0.5 mL of 30% acetonitrile in water and centrifuged at 13000 rpm for 5 min. Aliquots of the supernatants were injected onto the HPLC or analyzed by LSC for radioactivity recovery. Pooled urine samples from BDC monkeys and rats were centrifuged at 13000 rpm for 10 min and injected onto the HPLC for profiling without further treatment.
(§7) The amount of fecal homogenate used for analysis was 0.20, 0.19 and 0.51 g for rat, monkey and human, respectively. Each pooled fecal homogenate was extracted by addition of 3 volumes of acetonitrile/methanol (1:1) to 1 volume of fecal homogenate and mixed on a vortex mixer. The mixture was sonicated for 5 min and then centrifuged at 3000 rpm for 10 min. The supernatants were removed and saved. The extraction was repeated two additional times and the supernatants were combined and evaporated to dryness on a Savant Speed-Vac. […] An aliquot of the supernatant was injected onto the HPLC or analyzed by LSC for radioactivity recovery.
(§8) The LC/MS system used for analysis of plasma, urine, bile, and fecal samples consisted of an Agilent 1100™ HPLC system connected to a Finnigan LCQ-DecaXP mass spectrometer. Samples were analyzed using positive electrospray ionization. The capillary temperature used for analysis was 320° C., and the nitrogen gas flow rate, spray current, and voltages were adjusted to give maximum sensitivity. The HPLC conditions were described in section 3.3.1.
Counts per min (CPM) were determined on a Packard TopCount NXT microplate scintillation and luminescence counter. For each injection, the average CPM value (2-4 CPM) obtained from fractions between 2-3 min (column void) in the chromatogram was subtracted from the CPM value of each fraction.

Series [2] can be described thus: Radioactive metabolites in plasma, urine and feces after single oral dose of [14C] compound (I) to rats. The following applies: for % Distribution of radioactive metabolites in pooled plasma, Rat (4 h): oral 15 mg/kg [14C] compound (I), plasma 4 h; for Metabolites in Urine (0-168 hr), Rat, % Dose / Metabolites in Urine (0-168 hr), Rat, % Rad (% of total radioactivity in sample) / Metabolites in Feces (0-168 hr), Rat, % Dose / Metabolites in Feces (0-168 hr), Rat, % Rad (% of total radioactivity in sample): oral 15 mg/kg; for Metabolites in Urine (0-168 hr), Rat, % Dose / Metabolites in Urine (0-168 hr), Rat, % Rad (% of total radioactivity in sample): pooled urine 0-168 hr; for Metabolites in Feces (0-168 hr), Rat, % Dose / Metabolites in Feces (0-168 hr), Rat, % Rad (% of total radioactivity in sample): pooled fecal extracts 0-168 hr. Format: in vivo, Sprague-Dawley rat. The protocol: as §1, §2, §3, §4, §5, §6, §7, §8
Counts per min (CPM) were determined on a Packard TopCount NXT microplate scintillation and luminescence counter. For each injection, the average CPM value (2-4 CPM) obtained from fractions between 2-3 min (column void) in the chromatogram was subtracted from the CPM value of each fraction. Biotransformation profiles were prepared by plotting the background subtracted CPM values against time-after-injection.

Consider `Cc1nc(Nc2ncc(C(=O)Nc3c(C)cccc3Cl)s2)cc(N2CC[N+]([O-])(CCO)CC2)n1` [M5 (III)], for which, in series [1], the “% Distribution of radioactive metabolites in pooled plasma, Monkey (4 h)” value (“% Distribution … Monkey (4 h)” for short) is given as 2.6%; the “Metabolites in Urine (0-168 hr), Monkey, % Dose” value came out at 1.1%; the “Metabolites in Urine (0-168 hr), Monkey, % Rad” value came to 35.8%. For the same molecule, in series [2], the “% Distribution of radioactive metabolites in pooled plasma, Rat (4 h)” value (“% Distribution … Rat (4 h)” below) is given as 18.7%; the “Metabolites in Urine (0-168 hr), Rat, % Dose” value came out at 3.4%; the “Metabolites in Urine (0-168 hr), Rat, % Rad (% of total radioactivity in sample)” value is on record as 52.4%.
On to `Cc1nc(Nc2ncc(C(=O)Nc3c(C)cc(O)cc3Cl)s2)cc(N2CCN(CCO)CC2)n1` [M20 (V)], for which, in series [1], the “% Distribution … Monkey (4 h)” value turned out to be 2.8%; the “Metabolites in Feces (0-168 hr), Monkey, % Dose” value is given as 11.7%; the “Metabolites in Feces (0-168 hr), Monkey, % Rad” value was 15.2%; the “Metabolites in Urine (0-168 hr), Monkey, % Dose” value was determined as 0.02%. In addition, in series [1], the “Metabolites in Urine (0-168 hr), Monkey, % Rad” value is listed as 0.6%. Moreover, in series [2], the “Metabolites in Feces (0-168 hr), Rat, % Dose” value is listed as 7.6%; the “Metabolites in Feces (0-168 hr), Rat, % Rad (% of total radioactivity in sample)” value is given as 9.9%; the “Metabolites in Urine (0-168 hr), Rat, % Dose” value is given as 0.6%; the “Metabolites in Urine (0-168 hr), Rat, % Rad (% of total radioactivity in sample)” value is 9.9%.
For the molecule `Cc1nc(Nc2ncc(C(=O)Nc3c(C)cccc3Cl)s2)cc(N2CCN(CC(=O)O)CC2)n1` [M6 (IV), 2-(4-(6-(5-((2-Chloro-6-methylphenyl)carbamoyl)thiazol-2-ylamino)-2-methylpyrimidin-4-yl)piperazin-1-yl)acetic acid], in series [1], the “% Distribution … Monkey (4 h)” value is on record as 2.7%; the “Metabolites in Feces (0-168 hr), Monkey, % Dose” value is 14.0%; the “Metabolites in Feces (0-168 hr), Monkey, % Rad” value is 18.2%; the “Metabolites in Urine (0-168 hr), Monkey, % Dose” value came out at 0.06%. The “Metabolites in Urine (0-168 hr), Monkey, % Rad” value in series [1] stood at 2.2%. Besides, in series [2], the “% Distribution … Rat (4 h)” value was determined as 2.2%; the “Metabolites in Feces (0-168 hr), Rat, % Dose” value was determined as 13.2%; the “Metabolites in Feces (0-168 hr), Rat, % Rad (% of total radioactivity in sample)” value is recorded as 17.3%; the “Metabolites in Urine (0-168 hr), Rat, % Dose” value was found to be 0.4%. In addition, in series [2], the “Metabolites in Urine (0-168 hr), Rat, % Rad (% of total radioactivity in sample)” value stood at 6.5%.
`Cc1nc(Nc2ncc(C(=O)Nc3c(Cl)cccc3CO)s2)cc(N2CCN(CCO)CC2)n1` [M24 (VI), N-(2-chloro-6-(hydroxymethyl)phenyl)-2-(6-(4-(2-hydroxyethyl)piperazin-1-yl)-2-methylpyrimidin-4-ylamino)thiazole-5-carboxamide]: in series [1], the “% Distribution … Monkey (4 h)” value was determined as 0.7%; the “Metabolites in Feces (0-168 hr), Monkey, % Dose” value was found to be 6.6%; the “Metabolites in Feces (0-168 hr), Monkey, % Rad” value came to 8.6%; the “Metabolites in Urine (0-168 hr), Monkey, % Dose” value was found to be 0.06%. In series [1], the “Metabolites in Urine (0-168 hr), Monkey, % Rad” value amounted to 1.9%. In addition, in series [2], the “Metabolites in Feces (0-168 hr), Rat, % Dose” value is listed as 3.1% and the “Metabolites in Feces (0-168 hr), Rat, % Rad (% of total radioactivity in sample)” value was determined as 4.0%.
Consider `Cc1nc(Nc2ncc(C(=O)Nc3c(C)cccc3Cl)s2)cc(N2CCNCC2)n1` [M4 (II)], for which, in series [1], the “% Distribution … Monkey (4 h)” value is 3.0%; the “Metabolites in Feces (0-168 hr), Monkey, % Dose” value worked out at 2.9%; the “Metabolites in Feces (0-168 hr), Monkey, % Rad” value was 3.8%; the “Metabolites in Urine (0-168 hr), Monkey, % Dose” value was found to be 0.05%. The “Metabolites in Urine (0-168 hr), Monkey, % Rad” value in series [1] is recorded as 1.7%. Moreover, in series [2], the “% Distribution … Rat (4 h)” value is given as 2.6%; the “Metabolites in Feces (0-168 hr), Rat, % Dose” value is 1.9%; the “Metabolites in Feces (0-168 hr), Rat, % Rad (% of total radioactivity in sample)” value was 2.5%; the “Metabolites in Urine (0-168 hr), Rat, % Dose” value was determined as 0.3%. The “Metabolites in Urine (0-168 hr), Rat, % Rad (% of total radioactivity in sample)” value in series [2] is 4.4%.
Consider `Cc1nc(Nc2ncc(C(=O)Nc3c(C)cccc3Cl)s2)cc(N2CCN(CCO)CC2)n1` [Parent (I), N-(2-Chloro-6-methylphenyl)-2-[[6-[4-(2-hydroxyethyl)-1-piperazinyl]-2-methyl-4-pyrimidinyl]amino]-5-thiazolecarboxamide], for which, in series [1], the “% Distribution … Monkey (4 h)” value is 32.1%; the “Metabolites in Feces (0-168 hr), Monkey, % Dose” value was determined as 24.7%; the “Metabolites in Feces (0-168 hr), Monkey, % Rad” value came to 32.2%; the “Metabolites in Urine (0-168 hr), Monkey, % Dose” value is reported as 0.6%. Besides, the “Metabolites in Urine (0-168 hr), Monkey, % Rad” value in series [1] came out at 21.2%. Besides, in series [2], the “% Distribution … Rat (4 h)” value was 52.8%; the “Metabolites in Feces (0-168 hr), Rat, % Dose” value worked out at 41.6%; the “Metabolites in Feces (0-168 hr), Rat, % Rad (% of total radioactivity in sample)” value is on record as 54.5%; the “Metabolites in Urine (0-168 hr), Rat, % Dose” value stood at 0.7%. Further, the “Metabolites in Urine (0-168 hr), Rat, % Rad (% of total radioactivity in sample)” value in series [2] stood at 11.6%.
